The IC50 is the concentration needed to halve the response being measured.

Data on four compounds can be found in patent US20090042913A1, “Indolylalkylthienopyrimidylamines as modulators of the EP2 receptor” (priority 2007, published 2009).

For test [1], the target named is T1, human prostaglandin E2 (subtype EP2) receptor (Homo sapiens, UniProt P43116).
T1 construct: host or cells: cells in a cell culture plate
In words: cAMP antagonism assay (HTRF cAMP detection, PGE2-stimulated cells). The test is classed as cell-based. Conditions: cAMP antagonism test, in presence of PGE2. The procedure:
(§1) The binding of PGE2 to the EP2 subtype of the human PGE2 receptor induces activation of membrane-associated adenylate cyclases and leads to the formation of cAMP. In the presence of the phosphodiesterase inhibitor IBMX, cAMP which has accumulated due to this stimulation and been released by cell lysis is employed in a competitive detection method. In this assay, the cAMP in the lysate competes with cAMP-XL665 for binding of an Eu cryptate-labelled anti-cAMP antibody.
(§2) The two signals are measured in a suitable measuring instrument with a time lag, i.e. after the background fluorescence has declined.
The substance solutions (0.75 μl) introduced into an assay plate and 30% DMSO are dissolved in 16 μl of a KRSB+IBMX stimulation solution (1× Krebs-Ringer Bicarbonate Buffer; Sigma-Aldrich # K-4002; including 750 μM 3-isobutyl-1-methylxanthine Sigma-Aldrich # I-7018), and then 15 μl thereof are transferred into a media-free cell culture plate which has been washed with KRSB shortly beforehand.
After preincubation at room temperature (RT) for 30 minutes, 5 μl of a 4×PGE2 solution (11 nM) are added, and incubation is carried out in the presence of the agonist at RT for a further 60 min (volume: ˜20 μl) before the reaction is then stopped by adding 5 μl of lysis buffer and incubated at RT for a further 20 min (volume: ˜25 μl). The cell lysate is then transferred into a measuring plate and measured in accordance with the manufacturer's information (cyclic AMP kit Cisbio International # 62AMPPEC).

The test system of test [2] is cumulus-oocyte complexes (PGE2-induced cumulus expansion). In words: Cumulus expansion assay in vitro. The test is classed as cell-based, mice. As to conditions: in competition with PGE2. As to the method: Folliculogenesis is induced in immature female mice at an age of 14-18 days by a single dose (intraperitoneal) of 10 I.U. of PMSG (Pregnant Mare Serum Gonadotropin; Sigma G-4877, Lot 68H0909). 47-50 hours after the injection, the ovaries are removed and the cumulus-oocyte complexes are removed. The cumulus complex is not yet expanded at this stage.
The cumulus-oocyte complexes are then incubated with prostaglandin E2 (PGE2) (0.3 μM), vehicle control (ethanol) or test substances for 20-24 hours. Medium: alpha-MEM medium with 0.1 mM IBMX, pyruvates (0.23 mM) glutamines (2 mM), pen/strep 100 IU/ml pen. and 100 μg/ml strep. and HSA (8 mg/ml). Cumulus expansion is then established through the division into four stages (according to Vanderhyden et al. Dev Biol. 1990 August; 140(2):307-317).

Test [3] has as its target T1, human prostaglandin E2 (subtype EP2) receptor. In words: cAMP agonism assay (cellular agonism test). The test is classed as cell-based. As to conditions: without PGE2. As to the method:
as §1, §2
The substance solutions (0.75 μl) introduced into an assay plate and 30% DMSO are dissolved in 16 μl of a KRSB+IBMX stimulation solution (1× Krebs-Ringer Bicarbonate Buffer; Sigma-Aldrich # K-4002; including 750 μM 3-isobutyl-1-methylxanthine Sigma-Aldrich # 1-7018), and then 15 μl thereof are transferred into a media-free cell culture plate which has been washed with KRSB shortly beforehand.
After incubation at room temperature (RT; volume: ˜15 μl) for 60 minutes, the reaction is then stopped by adding 5 μl of lysis buffer and incubated at RT for a further 20 min (volume: ˜20 μl). The cell lysate is then transferred into a measuring plate and measured in accordance with the manufacturer's instructions (cyclic AMP kit Cisbio International # 62AMPPEC).

T1 sequence (P43116 whole entry): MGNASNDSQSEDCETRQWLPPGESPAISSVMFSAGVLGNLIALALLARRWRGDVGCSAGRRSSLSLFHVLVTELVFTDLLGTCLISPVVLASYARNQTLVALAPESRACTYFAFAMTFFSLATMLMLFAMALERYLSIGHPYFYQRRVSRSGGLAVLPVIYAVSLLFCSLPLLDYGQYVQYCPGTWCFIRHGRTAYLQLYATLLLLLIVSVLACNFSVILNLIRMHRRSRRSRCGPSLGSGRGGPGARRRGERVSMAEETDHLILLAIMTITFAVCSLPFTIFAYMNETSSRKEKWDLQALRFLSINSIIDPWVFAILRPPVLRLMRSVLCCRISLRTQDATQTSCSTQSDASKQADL

With `Cc1[nH]c2c(F)ccc(C)c2c1CCNc1ncnc2cc(-c3ccc(C(F)(F)F)cc3)sc12` [Example 30, [2-(7-fluoro-2,4-dimethyl-1H-indol-3-yl)ethyl]-[6-(4-trifluoromethylphenyl)thieno[3,2-d]pyrimidin-4-yl]amine], in test [1], the IC50 turned out to be 0.101 µM.

Take `Cc1[nH]c2c(F)ccc(C)c2c1CCNc1ncnc2cc(-c3cc(F)ccc3F)sc12` [Example 55, [6-(2,5-difluorophenyl)thieno[3,2-d]pyrimidin-4-yl]-[2-(7-fluoro-2,4-dimethyl-1H-indol-3-yl)ethyl]amine]: the IC50 in test [1] turned out to be 0.097 µM. Regarding `CC(C)Oc1ccc2c(=O)c3cc(C(=O)O)ccc3oc2c1` [AH 6809, reference compound], the “suppression of cumulus expansion” value in test [2] (100-200 μM) is recorded as “approx. 30%”. Regarding `Cc1[nH]c2c(F)ccc(C)c2c1CCNc1ncnc2cc(-c3cccc(F)c3)sc12` [Example 22, [2-(7-fluoro-2,4-dimethyl-1H-indol-3-yl)ethyl]-[6-(3-fluorophenyl)thieno[3,2-d]pyrimidin-4-yl]amine], in test [1], the IC50 amounted to 0.111 µM. Also, the “effect in the cellular agonism test” value in test [3] was “no inhibition”. For the same compound, in test [2] (10 μM), the “suppression of cumulus expansion” value is listed as 45%.
